Data set [1] relates to human retinal pigmented epithelial cells. The experiment in a line: CCK-8 analysis and LDH activity analysis in retinal pigmented epithelial cells. The class given is cell-based. Conditions: ARPE young and doxorubicin-senescent; FIG. 6D, 6E.
Description: Young cells (1×10^3 cells/well) or senescent cells (2×10^3 cells/well) were dispensed into a 96-well plate, and cultured overnight in a 37° C., 5% CO2 incubator.
Homoharringtonine, ABT263 and rapamycin were treated at each concentration, and then incubated for 4 days in a 37° C., 5% CO2 incubator. 10 μl of CCK-8 reagent (Dojindo Molecular Technologies Inc., Kumamoto, Japan) was added to each well, and incubated for 2 hours in an incubator. Then, the absorbance was measured at 450 nm using a Microplate reader. The degree of cell survival was expressed as a relative value for the absorbance of the control group treated with only DMSO as 100%.
Cytotoxicity against young and senescent cells was investigated with a lactate dehydrogenase (LDH) activity kit (Dojindo Molecular Technologies Inc.). Young cells (1×10^3 cells/100 μl/well) or senescent cells (2×10^3 cells/100 μl/well) were dispensed into a 96-well plate, and then cultured overnight in a 37° C., 5% CO2 incubator.
Homoharringtonine, ABT263 and rapamycin were treated at each concentration, and then incubated for 4 days in a 37° C., 5% CO2 incubator. […] 50 μl of the LDH reaction stop solution was added, and absorbance was measured at 490 nm using a microplate reader. The level of LDH activity was expressed as a relative value based on the absorbance of the control group treated with only DMSO.
Data set [2] relates to replicative senescent human fibroblasts. The experiment in a line: LDH activity analysis (cytotoxicity) in young and replicative senescent human fibroblasts. The class given is cell-based. Conditions: young vs replicative senescent fibroblasts; FIG. 2C.
Description: Cytotoxicity against young and senescent cells was investigated with a lactate dehydrogenase (LDH) activity kit (Dojindo Molecular Technologies Inc.). Young cells (1×10^3 cells/100 μl/well) or senescent cells (2×10^3 cells/100 μl/well) were dispensed into a 96-well plate, and then cultured overnight in a 37° C., 5% CO2 incubator. Homoharringtonine, ABT263 and rapamycin were treated at each concentration, and then incubated for 4 days in a 37° C., 5% CO2 incubator. After transferring the cell culture solution to a 1.5 ml tube, it was centrifuged at 4° C. and 12,000 rpm. 100 μl of the supernatant was dispensed into a 96-well plate, and 100 μl of the LDH measurement solution was added to each well, followed by reaction in a CO2 incubator for 30 minutes. 50 μl of the LDH reaction stop solution was added, and absorbance was measured at 490 nm using a microplate reader. The level of LDH activity was expressed as a relative value based on the absorbance of the control group treated with only DMSO.

As for `COC(=O)C[C@](O)(CCCC(C)(C)O)C(=O)O[C@@H]1C(OC)=C[C@]23CCCN2CCc2cc4c(cc2[C@H]13)OCO4` [homoharringtonine, Homoharringtonine], the “senescent cell-specific cytotoxicity (CCK-8 analysis and LDH activity analysis)” value in data set [1] is “not induced”. Moreover, the “LDH activity (cytotoxicity)” value in data set [2] was “increased only in replicative senescent cells compared to young cells”.
